Patent US20230210831A1, “CHRONIC KIDNEY DISEASE TREATMENT OR PREVENTION METHOD” (Japan Tobacco Inc., priority 2019, published 2023)

Key:
human SGLT1 = biological target: T1, human SGLT1 (Homo sapiens, UniProt P13866); assay: Assessment of SGLT1 inhibitory activity (14C-AMG uptake in human SGLT1-stably-expressing CHO-K1 cells); format: cell-based
T1 construct: expressed in transfected cells; PCR template pCMV6-hSGLT1 (OriGene)
T1 sequence (P13866 1-664): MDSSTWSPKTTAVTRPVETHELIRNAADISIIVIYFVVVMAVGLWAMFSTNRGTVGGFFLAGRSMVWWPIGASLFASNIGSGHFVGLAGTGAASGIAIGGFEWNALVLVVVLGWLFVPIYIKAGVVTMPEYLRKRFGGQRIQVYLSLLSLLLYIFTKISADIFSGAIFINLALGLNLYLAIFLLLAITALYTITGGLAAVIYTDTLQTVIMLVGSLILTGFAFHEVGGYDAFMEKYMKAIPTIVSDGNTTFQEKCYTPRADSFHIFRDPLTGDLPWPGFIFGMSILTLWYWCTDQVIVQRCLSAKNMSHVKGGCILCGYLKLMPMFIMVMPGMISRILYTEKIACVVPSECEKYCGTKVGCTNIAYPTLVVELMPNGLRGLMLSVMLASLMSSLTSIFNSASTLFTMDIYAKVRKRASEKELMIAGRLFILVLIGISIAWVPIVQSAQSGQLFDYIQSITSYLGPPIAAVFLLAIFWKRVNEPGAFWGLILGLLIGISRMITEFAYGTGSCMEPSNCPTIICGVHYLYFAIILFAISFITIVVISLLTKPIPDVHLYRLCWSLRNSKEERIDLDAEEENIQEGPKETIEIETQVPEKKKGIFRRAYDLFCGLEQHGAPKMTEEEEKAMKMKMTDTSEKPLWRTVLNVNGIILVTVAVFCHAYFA
Experimental: SGLT1 inhibitory activities of test compounds (IC50 values) were calculated based on the amount of intracellular uptake of labelled α-methyl-D-glucopyranoside (^14C-AMG) transported by SGLT1.
A DNA fragment containing human SGLT1 was amplified by PCR (Polymerase Chain Reaction) using pCMV6-hSGLT1 (OriGene) as a template. In the human SGLT1, NheI recognition and cleavage sequence was added to the upstream of Kozac consensus sequence derived from a vector, and a stop codon, TAG, and SalI recognition and cleavage sequence were added to the immediate downstream of the protein-translating region of human SGLT1. […]
Human SGLT1-stably-expressing cell lines were seeded at 5 x 10^4 cells/well on BioCoat™ Poly-D-Lysine 96 well plate with Lid (Becton, Dickinson and Company) and cultured at 37° C. under 5% CO2 overnight. […] In the assessment for the uptake ability of 14C-AMG, the total amount of the cell lysate was transferred to OptiPlate 96 (Perkin-Elmer) with 100 µL/well of MicroScint-40 (Perkin-Elmer) dispensed and ^14 C of CPM was measured with TOPCOUNT NXT (Perkin-Elmer).
Data was calculated by deducting the average value of CPM for blank well from the average value of CPM for each well treated. An inhibition rate for each test compound in each concentration was calculated from the following equation: […]

SDT fatty rats = assay: Assessment of renal protective effect (GFR in SDT fatty rats); format: in vivo, rat; conditions: 2 mg/kg orally once a day, 16 weeks; male SDT fatty rats
Experimental: Vehicle (0.5% methyl cellulose solution), Compound 1 (2 mg/kg), or dapagliflozin (0.3 mg/kg) was orally administered once a day to male SDT fatty rats (7-week old, CLEA Japan, Inc.); and as a normal control, vehicle was orally administered once a day to male SD rats (7-week old, CLEA Japan, Inc.). 16 Weeks after the administration, GFR (mL/min/100 g B.W.) was measured with a transdermal GFR monitor (MediBeacon). For statistical analysis, Student’s test was conducted between the vehicle-administered group of SD rats and the vehicle-administered group of SDT fatty rats. Dunnett’s multiple test was conducted for the Compound 1 and dapagliflozin groups to the vehicle group of SDT fatty rats. The significance level was two-sided 5%.

glucose-loaded SD rats [1] = assay: OGTT (oral glucose tolerance test), Test Example 3; format: in vivo, rat; conditions: 3 mg/kg orally 16 hours before glucose load; male SD rats; compared to vehicle
Experimental: Vehicle (0.5% methylcellulose solution), or Compound 1, Compound A, or Compound B (3 mg/kg each) suspended in a 0.5% methylcellulose solution was orally administered in 5 mL/kg to an about 4-hour-fasted male SD rat (8-week old, Nihon Charles River K.K., 5 cases for each group).
Statistical analyses were based on Dunnett’s multiple group test. The significance level was two-sided 5%.

⅚-kidney-removed rats = assay: Assessment of renal protective effect 2 (⅚-kidney-removed rats); format: in vivo, rat; conditions: 2 mg/kg/day mixed with feed, vs vehicle-administered group
Experimental: 7-Week old male Wistar rats (Japan SLC, Inc.) were treated by removing ⅔ of the left kidney under isoflurane anesthesia and then removing the whole right kidney one week later to prepare ⅚-kidney-removed rats. Compound 1 (2 mg/kg/day) mixed with feed was orally administered to the rats from the age of 9 weeks. As a normal control, male Wistar rats at the same age were set as a sham group. […] For statistical analysis, Student’s test was conducted between the vehicle-administered group and the Compound 1-administered group. […] For statistical analysis, Student’s test or Aspin-Welch was conducted.

glucose-loaded SD rats [2] = assay: OGTT (oral glucose tolerance test), Test Example 2; format: in vivo, rat; conditions: 1, 3, or 10 mg/kg orally 16 hours before glucose load; male SD rats; compared to vehicle
Experimental: Vehicle (0.5% methylcellulose solution) or Compound 1 (1, 3, or 10 mg/kg) suspended in a 0.5% methylcellulose solution was orally administered in 5 mL/kg to an about 4-hour-fasted male SD rat (8-week old, Nihon Charles River K.K., 6 cases for each group).
Statistical analyses were based on Steel’s multiple test. The significance level was two-sided 5%.

With `C[C@H]1C(=O)NC[C@@H]1C(=O)Nc1cc(-c2cc(F)cc(OC(C)(C)C)c2)n(C(F)(F)F)n1` [Compound 1, (3R,4R)-N-(5-(3-(tert-butoxy)-5-fluorophenyl)-1-(trifluoromethyl)-1H-pyrazol-3-yl)-4-methyl-5-oxopyrrolidine-3-carboxamide] the SGLT1 inhibitory activity (human SGLT1) was “confirmed to have the SGLT1 inhibitory activity”, the GFR (SDT fatty rats) was “inhibited the increase of GFR” and the “blood glucose level after the glucose load (Δ AUC to 120 minutes, % of Vehicle)” value (glucose-loaded SD rats [1]) was “significantly reduced”. For the same molecule, the “protein quantity in the urine” value (⅚-kidney-removed rats) was “lower than those of the vehicle-administered group”, the urea nitrogen level (⅚-kidney-removed rats) was “significantly lower than those of the vehicle-administered group” and the “blood glucose level after the glucose load (Δ AUC to 120 minutes, % of Vehicle)” value (glucose-loaded SD rats [2]) was “significantly reduced”.
